Laboratory results: US20060116360A1, “Method of administering anti-angiogenic agents and a method of treating disease using same” (priority 2004, published 2006)
“Also recorded” adds a separate entry of the source. Marks after values point to notes of the source that are not given here.

Key:
[1] = test system: vascular endothelial cell proliferation; settings: endothelial versus tumor cell proliferation; cited from earlier work
[2] = test system: Tumor cell lines (Lewis lung carcinoma or MDA-MB-231); assay: Wash-out in vitro anti-proliferation studies (cell counts) with ENMD-1198; assay type: cell-based
Method: Tumor cell lines (Lewis lung carcinoma or MDA-MB-231) were treated in vitro for varying times with varying concentrations of ENMD-1198. Over the course of a three-day study, on each study day the cells were exposed to ENMD-1198 for varying times (1, 2, 4, 6, or 24 hours) at the indicated concentrations. The medium was then removed and replaced with medium without ENMD-1198 for the remainder of each 24-hour period. For the 24-hour exposure wells, the medium was changed every day to provide 72 hours continuous exposure. Anti-proliferative activity was determined by cell counts after the third day of treatment.

Lewis lung carcinoma = Lewis lung carcinoma experimental pulmonary metastasis model; assay type: in vivo, mice; settings: for antitumor activity, T/C: 100 mg/kg/day
Excerpt: A pharmacodynamic paradigm relating 2ME2 pharmacokinetics to activity in vivo was developed. Dose-response relationships were established for 2ME2 following administration by (a) i.v. bolus administration, (b) oral gavage, (c) i.p. bolus injection, (d) i.p. dose fractionation, (e) continuous i.p. infusion, or (f) drinking water ad libitum in animal models, including an experimental pulmonary metastatic Lewis lung carcinoma model, primary tumor cell xenograft models, and a model of rheumatoid arthritis. Plasma 2ME2 concentration was temporally assessed by GC-MS or LC-MS/MS methodology, and pharmacokinetic parameters were defined at effective doses.
These studies assess the effect of route of administration on the anti-tumor activity of 2ME2 in an orthotopic model of murine lung cancer. Three days following the intravenous injection of Lewis lung carcinoma (“LLC”), groups of ten mice were treated with 2ME2 (200 mg/kg) once every 24 hours (q.d.) by either oral gavage (p.o.) or intraperitoneal (i.p.) injection.
FIG. 1, Panel B: 2.5×10^5 Lewis lung carcinoma cells in a volume of 0.2 ml were i.v. injected into the lateral tail vein of C57BL/6 male mice, 5-6 weeks of age (Jackson Labs). Treatment was initiated three days later by daily i.v. injection with 2ME2. Following the final day of therapy, mice were sacrificed, lungs removed, washed in phosphate buffered saline and weighed. Results are expressed as lung weight gain in treated versus control animals.
Dose-dependent inhibition of pulmonary metastases was observed following daily bolus administration of 2ME2. Fractionating a bolus q.d. injection (once every 24 hours, 2 mg/injection, 100 mg/kg/day) into four smaller, equal doses (q6hr, 0.5 mg/injection, 100 mg/kg/day) improved the antitumor activity of 2ME2 (T/C=0.30 and 0.05, respectively, p<0.05).
(§1) In further support of this paradigm, a significant inhibition of pulmonary metastases was obtained in tumor-bearing mice given 2ME2 by continuous infusion using Alzet pumps. Three days after injection of LLC cells, therapy was initiated i.p. with either vehicle control or with 2ME2 delivered through 7-day osmotic pumps (see FIG. 3A). The daily target levels of 2ME2 were calculated assuming an average pump rate of […]. To achieve a target level of 200 mg/kg/day, the concentration of 2ME2 in the osmotic pumps was prepared at 150 mg/mL. Asterisks indicate groups statistically different from vehicle control (α=0.05) as shown in A. To determine the PK profile of 2ME2 using this delivery scheme, non-tumor bearing male C57BL/6 mice (6 weeks of age) were treated i.p. for up to 7 days with 2ME2 at 1.8 mg/day (˜100 mg/kg/day) using 7-day osmotic pumps. On days 2, 4, and 7, plasma samples were collected and plasma 2ME2 levels were determined as described above (see FIG. 3B).
In further support of this paradigm, a significant inhibition of pulmonary metastases was obtained in tumor-bearing mice given 2ME2 ad libitum access through their drinking water.

[3] = test system: collagen-induced arthritis; assay: Rat collagen-induced arthritis model, radiographic scores; assay type: in vivo
Excerpt: Using relevant PK data for any given formulation in a human or animal, it is possible for one skilled in the art to devise a dosing strategy-a combination of dose level and dose frequency-which will result in substantially continuous maintenance of the plasma level of the agent within the desired concentration range and so maximize the pharmacological activity, in this case anti-arthritic or anti-inflammatory activity.

LLC cell line = assay: Wash-out in vitro proliferation study mimicking i.v. dosing; assay type: cell-based; settings: 3microM 2ME2 for 2 hours, then medium alone
Method: FIG. 1, Panel C: We designed a “wash-out” in vitro proliferation study to mimic the exposure profile following i.v. dosing. The LLC cell line was plated in 96-well plates. After 24 hours, medium containing 3microM 2ME2 was added. Cells were exposed to 3microM 2ME2 for 2 hours. The medium was then removed and replaced with medium alone (medium: DMEM/F12 (1:1)+10% FBS+2mM L-Glutamine).

[4] = Plasma 2ME2 pharmacokinetics in non-tumor bearing C57BL/6 mice; assay type: in vivo; settings: ad libitum drinking water, range over a 24 hr period
[5] = as above; assay type: in vivo; settings: for Cmin / Tmax / T½ / Cmax / AUC0-24: i.p.
Method: On day 7, plasma samples were collected at selected time points, and plasma unconjugated 2ME2 levels were determined using LC-MS/MS methodology.
The data for 0.5 mg q.i.d. over the first six hours was used to model steady state levels over a 24 hr. time period as shown in FIG. 2. Pharmacokinetic parameters were determined by noncompartmental analysis using WinNonLin (Pharsight, Mountain View, Calif.).
as §1

H2122 human NSCLC cells = assay: Orthotopic H2122 NSCLC rat tumor model, survival; assay type: in vivo, rats
Method: Female athymic nude rats were injected i.t. with H2122 human NSCLC cells (1×10^6 in 0.2 mL). Seven days later, daily therapy was initiated p.o. with either vehicle control or 2ME2 at 10 or 60 or 300 mg/kg/d (n=15 rats/group). Animals were monitored closely for signs of morbidity and median survival times (MST) were determined. The study was terminated 50 days post tumor cell injection. In a separate cohort of non-tumor-bearing rats, plasma 2ME2 concentrations were determined at selected time points following a single oral gavage at 60 and 300 mg/kg. The PK data in Table 3 represents the range of 2ME2 concentrations in a 24 hour period. […] Using relevant PK data for any given formulation in a human or animal, it is possible for one skilled in the art to devise a dosing strategy—a combination of dose level and dose frequency—which will result in substantially continuous maintenance of the plasma level of the agent within the desired concentration range and so maximize the pharmacological activity, in this case anti-tumor activity.

[6] = test system: Tumor cell lines (Lewis lung carcinoma or MDA-MB-231); assay: Wash-out in vitro anti-proliferation studies (BrdU) with 2ME2; assay type: cell-based
Method: To mimic the effect of cyclic levels of 2ME2 seen after daily dosing, and to compare this to the effects of continuous exposure to 2ME2, we carried out a series of wash-out in vitro anti-proliferation studies. Tumor cell lines (Lewis lung carcinoma or MDA-MB-231) were treated in vitro for varying times with varying concentrations of 2ME2. Over the course of a three-day study, on each study day the cells were exposed to 2ME2 for varying times (1, 2, 4, 6, or 24 hours) at the indicated concentrations. The medium was then removed and replaced with medium without 2ME2 for the remainder of each 24-hour period. Anti-proliferative activity was determined using a BrdU proliferation assay according to the manufacturer's instructions after the third day of treatment (see FIGS. 4A and 4B).

[7] = short-term incubation, even at high concentrations
[8] = 0.5 q.i.d., modelled from first six hours

In the case of `CO[C@@H]1[C@H](OC(=O)NC(=O)CCl)CC[C@]2(CO2)[C@H]1[C@@]1(C)O[C@@H]1CC=C(C)C` [AGM-1470], the “lower concentration for half-maximal inhibition of vascular endothelial cell proliferation than of tumor cell proliferation” value [1] is listed as 4 logs.
For `COc1cc2c(cc1C(N)=O)CC[C@@H]1[C@@H]2CC[C@]2(C)C=CC[C@@H]12` [ENMD-1198], the “inhibition of proliferation in vitro” value ([2]; continuous exposure (72 hours)) was “maximal inhibition of proliferation” and the “anti-proliferative activity in vitro” value [2, 7] was “does not result in much anti-proliferative activity”.
In the case of `COc1cc2c(cc1O)CC[C@@H]1[C@@H]2CC[C@]2(C)[C@@H](O)CC[C@@H]12` [Formulation 2ME2, 2-methoxyestradiol], the “inhibition of pulmonary metastases, T/C” value (Lewis lung carcinoma; 2ME2 200 mg/kg q.d. i.p. injection) is reported as 0.17, the “inhibition of pulmonary metastases, T/C” value (Lewis lung carcinoma; 2ME2 200 mg/kg q.d. oral gavage (p.o.)) is reported as 0.28 and the “inhibition of pulmonary metastases, T/C” value (Lewis lung carcinoma; 2ME2 ad libitum through drinking water) is reported as 0.16. For the same compound, the “antitumor activity, T/C” value (Lewis lung carcinoma; bolus q.d., 2 mg/injection) was 0.30, the “growth inhibition of pulmonary metastases” value (Lewis lung carcinoma; continuous i.p. infusion, Alzet osmotic pumps, calculated dose ~100 mg/kg/day) was 89% and the “anti-tumor activity in vivo (lung weight gain)” value (Lewis lung carcinoma; daily i.v. injection, transiently high levels) was “did not result in significant anti-tumor activity”. For the same compound, the “antitumor activity, T/C” value (Lewis lung carcinoma; q6hr, 0.5 mg/injection) was 0.05, the “radiographic scores on day 28” value ([3]; 2ME2 50 mg/kg p.o. b.i.d) was 2.11±0.18 and the “radiographic scores on day 28” value ([3]; 2ME2 60 mg/kg s.c. continuous infusion (Alzet pumps)) was 1.5±0.18. The “radiographic scores on day 28” value ([3]; 2ME2 100 mg/kg p.o. q.d.) was 2.88±0.21, the “anti-proliferative effect of transient exposure” value (LLC cell line) was “poor anti-proliferative effect; also recorded: did not result in much anti-proliferative activity” and the “plasma 2ME2 concentrations” value [4] was 3 to 15 ng/mL. For the same compound, the Cmin ([5]; 0.5 q.d., day 7) was 0.00146 µg/mL, the Tmax ([5]; 0.5 q.d., day 7) was 0.5 h and the T½ ([5]; 0.5 q.d., day 7) was 1.1 h. The Cmax ([5]; 0.5 q.d., day 7, plasma unconjugated 2ME2) was 0.325 µg/mL, the AUC0-24 ([5]; 0.5 q.d., day 7, = AUC0-6*4) was 826.5^a ng/mL*hr and the AUC0-24 [5, 8] was 836.1 ng·h/mL. For the same compound, the Cmin [5, 8] was 0.0015 µg/mL, the Tmax [5, 8] was 18.5 h and the T½ [5, 8] was 1.1 h. It also gave a Cmax ([5]; 0.5 q.i.d., steady state over 24 hr modelled from first six hours) of 0.32609 µg/mL, an AUC0-24 ([5]; 2.0 q.d., day 7) of 13570.9 ng·h/mL and a Cmax ([5]; 2.0 q.d., day 7) of 14.07 µg/mL. It also gave a Cmin ([5]; 2.0 q.d., day 7) of 0.00086 µg/mL, a Tmax ([5]; 2.0 q.d., day 7) of 0.5 h and a T½ ([5]; 2.0 q.d., day 7) of 3.2 h. For the same compound, the plasma exposure levels ([5]; continuous i.p. infusion, Alzet osmotic pumps, ~100 mg/kg/day) was 9 to 25 ng/mL, the “% Survival on Day 50” value (H2122 human NSCLC cells; 2ME2 10 mg/kg/d p.o.) was 13% and the “Median Survival Time” value (H2122 human NSCLC cells; 2ME2 10 mg/kg/d p.o.) was 18.5 days. For the same compound, the “% Survival on Day 50” value (H2122 human NSCLC cells; 2ME2 60 mg/mk/d p.o.) was 20%, the “Median Survival Time” value (H2122 human NSCLC cells; 2ME2 60 mg/mk/d p.o.) was 26 days and the “% Survival on Day 50” value (H2122 human NSCLC cells; 2ME2 300 mg/kg/d p.o.) was 47%. The “Median Survival Time” value (H2122 human NSCLC cells; 2ME2 300 mg/kg/d p.o.) was 43 days, the “increase in median survival time as compared to diluent-treated controls” value (H2122 human NSCLC cells; oral gavage, plasma 2ME2 3-17 ng/mL) was 2.5 fold and the “inhibition of proliferation in vitro” value ([6]; continuous exposure) was “maximal inhibition of proliferation”. For the same compound, the “anti-proliferative activity in vitro” value [6, 7] was “does not result in much anti-proliferative activity”.
